Experimental findings from patent US10882837B2, “Amide compounds and use thereof” (ALPHALA CO., LTD., priority 2017, dated 2021) are described below.

The target of one assay is GCGR (Homo sapiens, UniProt P47871). As to the kind of experiment: I125-glucagon binding assay (competition, GCGR membrane fractions). Details: expressed in transfected cells; host or cells: CHO-K1; inhibition: dose or concentration left out as unconfirmed. The following applies: for IC50: competition with I125-glucagon 0.0625 nM, membrane fractions from GCGR overexpressed CHO-K1 cells. The essentials:
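Membranes from CHO-K1 cells overexpressing GCGR (7.5 µg/well) were preincubated 5 min with serially diluted compound in 50 mM Tris pH 7.4, 0.5% BSA. I125-glucagon was then added at 0.0625 nM final and incubated 30 min at 25 °C. After filtration, bound radioactivity was counted and IC50 derived by non-linear regression.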

For a further assay, the target named is T1, glucagon receptor (GCGR) (Homo sapiens, UniProt P47871).
T1 construct: expressed in transfected cells; host or cells: CHO-K1
T1 sequence (P47871 26-477, species assumed): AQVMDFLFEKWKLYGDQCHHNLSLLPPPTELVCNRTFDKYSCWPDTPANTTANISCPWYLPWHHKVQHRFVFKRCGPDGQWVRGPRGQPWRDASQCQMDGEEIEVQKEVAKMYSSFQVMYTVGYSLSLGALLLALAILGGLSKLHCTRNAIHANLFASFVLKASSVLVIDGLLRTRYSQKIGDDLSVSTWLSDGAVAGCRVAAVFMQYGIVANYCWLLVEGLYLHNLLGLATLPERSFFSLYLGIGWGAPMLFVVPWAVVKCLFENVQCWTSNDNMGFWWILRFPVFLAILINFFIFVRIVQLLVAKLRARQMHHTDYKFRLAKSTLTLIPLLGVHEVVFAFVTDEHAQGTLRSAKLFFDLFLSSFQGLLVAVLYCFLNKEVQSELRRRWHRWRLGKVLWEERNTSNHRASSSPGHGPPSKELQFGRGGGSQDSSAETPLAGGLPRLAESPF
As to the kind of experiment: Glucagon cAMP inhibition assay (Cisbio cAMP Dynamic 2 HTRF). Type of assay: cell-based. As to conditions: GCGR overexpressed CHO-K1 cells or human primary hepatocytes (not specified); glucagon at EC50. The essentials:
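GCGR-overexpressing CHO-K1 cells or human primary hepatocytes in HBSS with 0.1% BSA and 800 nM IBMX, pre-incubated 30 min with compound (1% DMSO final), then stimulated 30 min at room temperature with glucagon at its EC50. cAMP measured by HTRF after 60 min lysis; IC50 from non-linear regression.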
For orientation: TR-FRET usually uses a lanthanide donor and a delayed reading to cut background.

Sequence of GCGR (P47871 26-477, species assumed): as above

For orientation: IC50 means the concentration at which inhibition is half-maximal. Regarding `CCOC(=O)CCNC(=O)c1ccc(NC(c2ccc(-c3nc4ccccc4o3)cc2)C(C)C)cc1` (centres unmarked) [Compound 4-1, ethyl 3-(4-((1-(4-(benzo[d]oxazol-2-yl)phenyl)-2-methylpropyl)amino)benzamido)propanoate], the IC50 at GCGR is 968 nM; against glucagon receptor (GCGR) it was 95.7 nM.

Consider `CC(C)[C@@H](Nc1ccc(C(=O)NCCC(=O)O)cc1)c1ccc(-c2nnc(-c3ccccc3)o2)cc1` [Compound 1-42, (R)-3-(4-(2-methyl-1-(4-(5-phenyl-1,3,4-oxadiazol-2-yl)phenyl)propylamino)benzamido)propanoic acid], for which the IC50 at GCGR worked out at 2920 nM; against glucagon receptor (GCGR), 2930 nM.

On to `CC(C)C(Nc1ccc(C(=O)NCCC(=O)O)cc1)c1ccc(-c2nc3ccccc3o2)cc1` (centres unmarked) [Compound 4-3, 3-(4-((1-(4-(benzo[d]oxazol-2-yl)phenyl)-2-methylpropyl)amino)benzamido)propanoic acid], for which the figures for the IC50 on GCGR and against glucagon receptor (GCGR) were 34 nM and 2220 nM, respectively.

In the case of `CCCC[C@@H](Nc1ccc(C(=O)NCCC(=O)OCC)cc1)c1ccc(-c2noc(C(F)(F)F)n2)cc1` [Compound 2-46, ethyl (R)-3-(4-((1-(4-(5-(trifluoromethyl)-1,2,4-oxadiazol-3-yl)phenyl)pentyl)amino)benzamido)propanoate], the results for the IC50 at GCGR and against glucagon receptor (GCGR) were greater than 30000 nM and 2880 nM, respectively.

For `CCOC(=O)CCNC(=O)c1ccc(N[C@H](c2ccc(-c3noc(-c4ccccc4)n3)cc2)C(C)C)cc1` [Compound 2-27, ethyl (S)-3-(4-((2-methyl-1-(4-(5-phenyl-1,2,4-oxadiazol-3-yl)phenyl)propyl)amino)benzamido)propanoate], the IC50 on GCGR is 634 nM; against glucagon receptor (GCGR) it was 61 nM.

Turning to `CC(C)C[C@@H](Nc1ccc(C(=O)NCCC(=O)O)cc1)c1ccc(-c2nnc(-c3ccccc3)o2)cc1` [Compound 1-62, (R)-3-(4-((3-methyl-1-(4-(5-phenyl-1,3,4-oxadiazol-2-yl)phenyl)butyl)amino)benzamido)propanoic acid], the half-maximal inhibitory concentration (IC50) at GCGR stood at 876 nM; on glucagon receptor (GCGR) it was 2050 nM.

Turning to `CC(C)C(Nc1ccc(C(=O)NCCC(=O)O)cc1)c1ccc(-c2noc(-c3ccccc3)n2)cc1` (centres unmarked) [Compound 2-26, 3-(4-((2-methyl-1-(4-(5-phenyl-1,2,4-oxadiazol-3-yl)phenyl)propyl)amino)benzamido)propanoic acid], the IC50 at GCGR came to 40 nM; against glucagon receptor (GCGR), 570 nM.

On to `CCOC(=O)CCNC(=O)c1ccc(C(Nc2ccc(-c3nnc(-c4ccc(F)cc4)o3)cc2)C(C)CC)cc1` (centres unmarked) [Compound 3-7, ethyl 3-(4-(1-((4-(5-(4-fluorophenyl)-1,3,4-oxadiazol-2-yl)phenyl)amino)-2-methylbutyl)benzamido)propanoate], for which the IC50 stood at 246 nM at GCGR and 159 nM against glucagon receptor (GCGR).

By inhibition is commonly meant how much of the control response was suppressed. Take `CCOC(=O)CCNC(=O)c1ccc(N[C@H](c2ccc(-c3nnc(-c4ccccc4)o3)cc2)C(C)CC)cc1` (stereo partly drawn) [Compound 1-47, ethyl 3-(4-(((1S)-2-methyl-1-(4-(5-phenyl-1,3,4-oxadiazol-2-yl)phenyl)butyl)amino)benzamido)propanoate]: the IC50 was determined as 226 nM at GCGR and 37 nM against glucagon receptor (GCGR). Besides, the inhibition at 30 µM at GCGR (compound at 30 μM, read-out: percentage of inhibition (number in parenthesis in IC50 binding column)) is 28%.

Turning to `CCOC(=O)CCNC(=O)c1ccc(NC(c2ccc(-c3noc(-c4cccs4)n3)cc2)C(C)C)cc1` (centres unmarked) [Compound 2-11, ethyl 3-(4-((2-methyl-1-(4-(5-(thiophen-2-yl)-1,2,4-oxadiazol-3-yl)phenyl)propyl)amino)benzamido)propanoate], the IC50 was found to be 3060 nM at GCGR and 180 nM against glucagon receptor (GCGR). Further, the inhibition at GCGR (read-out: percentage of inhibition (number in parenthesis in IC50 binding column)) was found to be 38%.

For `CC(C)C(Oc1ccc(-c2nc3ccccc3s2)cc1)c1ccc(C(=O)NCCC(=O)O)cc1` (centres unmarked) [Compound 7-4, 3-(4-(1-(4-(Benzo[d]thiazol-2-yl)phenoxy)-2-methylpropyl)benzamido)propanoic acid], the results for the IC50 on GCGR and against glucagon receptor (GCGR) were 208 nM and 209 nM, respectively.

Turning to `CCCC[C@H](Nc1ccc(C(=O)NCCC(=O)O)cc1)c1ccc(-c2nnc(-c3ccccn3)o2)cc1` [Compound 1-45, (S)-3-(4-((1-(4-(5-(pyridin-2-yl)-1,3,4-oxadiazol-2yl)phenyl)pentyl)amino)benzamido)propanoic acid], the IC50 on GCGR is 339 nM; at glucagon receptor (GCGR), 2540 nM.

In the case of `CCCC(Nc1ccc(C(=O)NCCC(=O)O)cc1)c1ccc(-c2nnc(-c3ccccc3)o2)cc1` (centres unmarked) [Compound 1-7], the results for the concentration for half-maximal inhibition (IC50) at GCGR and against glucagon receptor (GCGR) were 211 nM and 3330 nM, respectively.

For `CCCC[C@H](Nc1ccc(C(=O)NCCC(=O)OCC)cc1)c1ccc(-c2noc(-c3ccccn3)n2)cc1` [Compound 2-37, ethyl (S)-3-(4-((1-(4-(5-(pyridin-2-yl)-1,2,4-oxadiazol-3-yl)phenyl)pentyl)amino)benzamido)propanoate], the concentration for half-maximal inhibition (IC50) at GCGR turned out to be 1100 nM; against glucagon receptor (GCGR), 89.7 nM.

Regarding `CCOC(=O)CCNC(=O)c1ccc(N[C@H](c2ccc(-c3nc(-c4ccccc4)no3)cc2)C(C)CC)cc1` (stereo partly drawn) [Compound 5-5, ethyl 3-(4-(((1S)-2-methyl-1-(4-(3-phenyl-1,2,4-oxadiazol-5-yl)phenyl)butyl)amino)benzamido)propanoate], the IC50 is 876 nM at GCGR and 46 nM against glucagon receptor (GCGR).

For the molecule `CCOC(=O)CCNC(=O)c1ccc(N[C@@H](c2ccc(-c3noc(-c4ccccc4)n3)cc2)C(C)CC)cc1` (stereo partly drawn) [Compound 2-20, ethyl 3-(4-(((1R)-2-methyl-1-(4-(5-phenyl-1,2,4-oxadiazol-3-yl)phenyl)butyl)amino)benzamido)propanoate], the IC50 at GCGR turned out to be 217 nM; at glucagon receptor (GCGR), 338 nM.

Consider `CCOC(=O)CCNC(=O)c1ccc(NC(c2ccc(-c3nnc(-c4ccc(F)cc4)o3)cc2)C(C)CC)cc1` (centres unmarked) [Compound 1-29, ethyl 3-(4-((1-(4-(5-(4-fluorophenyl)-1,3,4-oxadiazol-2-yl)phenyl)-2-methylbutyl)amino)benzamido)propanoate], for which the IC50 worked out at 4720 nM at GCGR and 114 nM at glucagon receptor (GCGR).

`CCOC(=O)CCNC(=O)c1ccc(N[C@@H](c2ccc(-c3nnc(C(F)(F)F)o3)cc2)C(C)CC)cc1` (stereo partly drawn) [Compound 1-35, ethyl 3-(4-(((1R)-2-methyl-1-(4-(5-(trifluoromethyl)-1,3,4-oxadiazol-2-yl)phenyl)butyl)amino)benzamido)propanoate]: the values for the IC50 on GCGR and against glucagon receptor (GCGR) were greater than 30000 nM and 384 nM, respectively.

`CCCC[C@@H](Nc1ccc(C(=O)NCCC(=O)OCC)cc1)c1ccc(-c2noc(-c3ccccc3)n2)cc1` [Compound 2-35, ethyl (R)-3-(4-((1-(4-(5-phenyl-1,2,4-oxadiazol-3-yl)phenyl)pentyl)amino)benzamido)propanoate]: the IC50 at GCGR is 40 nM; on glucagon receptor (GCGR), 852 nM.

With `CC(C)C[C@@H](Nc1ccc(C(=O)NCCC(=O)O)cc1)c1ccc(-c2nc3ccccc3o2)cc1` [Compound 4-14, (R)-3-(4-((1-(4-(benzo[d]oxazol-2-yl)phenyl)-3-methylbutyl)amino)benzamido)propanoic acid], the values for the IC50 on GCGR and against glucagon receptor (GCGR) were 112 nM and 917 nM, respectively.

Regarding `CC(C)C(Nc1ccc(-c2nnc(-c3ccccc3)o2)cc1)c1ccc(C(=O)NCCC(=O)O)cc1` (centres unmarked) [Compound 3-2, 3-(4-(2-methyl-1-((4-(5-phenyl-1,3,4-oxadiazol-2-yl)phenyl)amino)propyl)benzamido)propanoic acid], the figures for the 50% inhibitory concentration (IC50) at GCGR and against glucagon receptor (GCGR) were 17 nM and 2900 nM, respectively.

With `CCCC[C@H](Nc1ccc(C(=O)NCCC(=O)OCC)cc1)c1ccc(-c2nnc(-c3ccccn3)o2)cc1` [Compound 1-43, ethyl (S)-3-(4-((1-(4-(5-(pyridin-2-yl)-1,3,4-oxadiazol-2-yl)phenyl)pentyl)amino)benzamido)propanoate], the IC50 came out at 1480 nM at GCGR and 46.4 nM against glucagon receptor (GCGR).

In the case of `CC(C)C[C@H](Nc1ccc(C(=O)NCCC(=O)O)cc1)c1ccc(-c2nnc(-c3ccccc3)o2)cc1` [Compound 1-61, (S)-3-(4-((3-methyl-1-(4-(5-phenyl-1,3,4-oxadiazol-2-yl)phenyl)butyl)amino)benzamido)propanoic acid], the IC50 at GCGR amounted to 201 nM; against glucagon receptor (GCGR), 3250 nM.

Turning to `CCOC(=O)CCNC(=O)c1ccc(NC(c2ccc(-c3nnc(C(C)(C)C)o3)cc2)C(C)C)cc1` (centres unmarked) [Compound 1-23], the values for the concentration for half-maximal inhibition (IC50) on GCGR and at glucagon receptor (GCGR) were 18700 nM and 180 nM, respectively.

On to `COC(=O)CCNC(=O)c1ccc(N[C@H](c2ccc(-c3noc(-c4ccccc4)n3)cc2)C(C)C)cc1` [Compound 2-49, methyl (S)-3-(4-((2-methyl-1-(4-(5-phenyl-1,2,4-oxadiazol-3-yl)phenyl)propyl)amino)benzamido)propanoate], for which the values for the IC50 on GCGR and at glucagon receptor (GCGR) were 285 nM and 55.8 nM, respectively.

In the case of `CCOC(=O)CCNC(=O)c1ccc(N[C@H](c2ccc(-c3nnc(-c4ccccc4)o3)cc2)C(C)C)cc1` [Compound 1-39, (S)-ethyl 3-(4-(2-methyl-1-(4-(5-phenyl-1,3,4-oxadiazol-2-yl)phenyl)propylamino)benzamido)propanoate], the IC50 on GCGR turned out to be 2850 nM; against glucagon receptor (GCGR), 40.3 nM.

As for `CCOC(=O)CCNC(=O)c1ccc(C(Nc2ccc(-c3nnc(-c4ccc(F)cc4)o3)cc2)C(C)C)cc1` (centres unmarked) [Compound 3-9, ethyl 3-(4-(1-((4-(5-(4-fluorophenyl)-1,3,4-oxadiazol-2-yl)phenyl)amino)-2-methylpropyl)benzamido)propanoate], the IC50 at GCGR was greater than 30000 nM; against glucagon receptor (GCGR), 442 nM.
